Laboratory results from patent US9028856B2, “Synergistic pesticide compositions” (priority 2008, dated 2015).

Columns and labels:
[1] = test system: Culex quinquefasciatus mosquito; assay: USDA Petri Dish Method, 3 min exposure to treated glazed tile (twenty 4-6 day old females); type: in vivo; details: for Average % Mortality after 1 hr / Average % Mortality after 3 hr / Average % Mortality after 5 hr / Average % Mortality after 24 hr: Table 77, carbaryl study, Culex quinquefasciatus; for Average % Mortality after 1 hr: glazed tile, 3 min exposure, adjuvant = Compound A 1% + Compound B 0.5%; for % KD and Mortality 3′ / % KD and Mortality 9′ / % KD and Mortality 15′ / % KD and Mortality 30′ / % KD and Mortality 1 h / % KD and Mortality 24 h: Table 73, in acetone, glazed tiles, 3′ exposure time; for % KD and Mortality 3′: 20 insects (three replicates); for % KD and Mortality 9′ / % KD and Mortality 15′ / % KD and Mortality 30′ / % KD and Mortality 1 h / % KD and Mortality 24 h: 20 insects
Method: (§1) MATERIALS AND METHODS: Solutions of resmethrin at 1 and 0.5% AI were prepared with and without adjuvant in acetone. […] USDA Petri Dish Method was used as initial screening protocol. Twenty, 4-6 day old female Culex quinquefasciatus mosquitoes were exposed to each treatment for 3 minutes and then moved to a clean untreated white paper index card. Treatments were replicated a minimum of three times. Mosquito knockdown was evaluated at 3 minute intervals for the first 15 minutes and then at 5 minute intervals for the remainder of an hour. A small cotton ball soaked in sucrose solution was added on the screen top of the petri-dish as a drinking source after the 2 hour evaluation. Mortality was evaluated at 24 hours after exposure.
(§2) Treatments were allowed to dry overnight. USDA Petri Dish Method was used as initial screening protocol. Twenty, 4-6 day old female Culex mosquitoes were exposed to each treatment for 3 minutes and then moved to a clean untreated white paper index card. Treatments were replicated a minimum of three times. Mosquito knockdown was evaluated at various intervals through 3 hours after exposure. A small cotton ball soaked in sucrose solution was added on the screen top of the petri-dish as a drinking source. Mortality was evaluated at 24 hours after exposure.
as §2, with “female Culex quinquefasciatus mosquitoes were” for “female Culex mosquitoes were”, “intervals through 2 hours after” for “intervals through 3 hours after”, “solution was then added on” for “solution was added on”
as §2, with “Culex quinquefasciatus” for “Culex”, “hourly intervals.” for “intervals through 3 hours after exposure.”, “source after 2 hours.” for “source.”

[2] = test system: Aedes aegypti mosquito; assay: USDA Petri Dish Method, 3 min exposure to treated glazed tile; type: in vivo; details: glazed tile, 3 min exposure
Method: as §2, with “female Aedes aegypti” for “female Culex”, “through 7” for “through 3”
as §1, with “Aedes aegypti” for “Culex quinquefasciatus”, “source.” for “source after the 2 hour evaluation.”
as §2, with “female Aedes aegypti” for “female Culex”, “through 6” for “through 3”
as §2, with “Aedes aegypti” for “Culex”, “5 minute” for “various”, “for the first hour and then at 2, 4 and 6 hours.” for “through 3 hours after exposure.”
Treatments were allowed to dry overnight. USDA Petri Dish Method was used as initial screening protocol. Twenty, 4-6 day old female Aedes aegypti mosquitoes were exposed to each treatment for 3 minutes and then moved to a clean untreated white paper index card. Treatments were replicated a minimum of three times. Mosquito knockdown was evaluated at 3-5 minute intervals for the first hour. A small cotton ball soaked in sucrose solution was then added on the screen top of the petri-dish as a drinking source. Mortality was evaluated at 24 hours after exposure.
as §2, with “old female Aedes aegypti mosquitoes were” for “old female Culex mosquitoes were”, “intervals through 2 hours after” for “intervals through 3 hours after”, “solution was then added on” for “solution was added on”
Treatments were allowed to dry overnight. USDA Petri Dish Method was used as initial screening protocol. Twenty, 4-6 day old female Aedes aegypti mosquitoes were exposed to each treatment for 3 minutes and then moved to a clean untreated white paper index card. Treatments were replicated a minimum of three times. Mosquito knockdown was evaluated at various hourly intervals. […]

[3] = test system: Odorous House ant, Tapinoma sessile; assay: Knockdown/mortality of ant workers under continuous exposure on treated glazed tile; type: in vivo; details: Table 51, fipronil/adjuvant in acetone, glazed tile
From the text: Actual coverage was about 5″×5″ (or 161 cm2) for easy handling. Treatments were allowed to dry overnight. […] Treatments were replicated minimum three times.
(§3) Treatments were allowed to dry overnight. […] Treatments were replicated minimum three times.
(§4) Treatments were allowed to dry overnight. […] Treatments were replicated a minimum of three times.
Treatments were allowed to dry overnight. […] Treatments were replicated minimum of three times. […] The results are shown in FIG. 84 (No adjuvant alone treatment was performed).

[4] = test system: Red Imported Fire ant (RIFA), Solenopsis invicta; assay: as above; type: in vivo; details: Table 52, fipronil/adjuvant in acetone, glazed tile
From the text: as §3, §4

[5] = test system: susceptible/normal German cockroach (Monheim strain), Blattella germanica; assay: Knockdown/mortality of male cockroaches under continuous exposure on treated glazed tile; type: in vivo; details: Table 53, fipronil/adjuvant in acetone, glazed tile, Monheim strain
Method: Treatments were allowed to dry overnight. […] Treatments were replicated a minimum of three times. […]
Treatments were allowed to dry overnight. […] Treatments were replicated a minimum of three times. Cockroach knockdown/mortality was evaluated at 5 minute intervals for the first 60 minutes after exposure and then at 2, 18 and 24 hours.

[6] = test system: Argentine ant, Linepithema humile; assay: Knockdown/mortality of ant workers under continuous exposure on treated glazed tile; details: Table 49, fipronil/adjuvant in acetone, glazed tile
Method: (§5) Solutions of imidacloprid at 0.5% AI were prepared with and without methyl oleate @0.1, 1.0 and 5.0% in acetone. Treatments were applied using a micropipette to dispense 1 ml of test solution evenly on a 6″×6″ glazed tile. Actual coverage was about 5″×5″ (or 161 cm^2) for easy handling. Treatments were allowed to dry overnight. Ten Argentine ant workers were placed within a fluon or talc-coated PVC ring (φ7.6 cm×H 5.1 cm) under continuous exposure. A small vial filled with a cotton ball soaked in water was added as a drinking source after 3 hours. Treatments were replicated a minimum of three times. Evaluations for ant knockdown/mortality were made at various intervals and at 24 hours after exposure.
as §5, with “MATERIALS AND METHODS: Solutions” for “Solutions”, “linoleate” for “oleate”
as §5, with “MATERIALS AND METHODS: Solutions of” for “Solutions of”, “without methyl palmitate @0.1, 1.0” for “without methyl oleate @0.1, 1.0”, “after exposure. […]” for “after exposure.”

[7] = Table 37, resmethrin/adjuvant in acetone
[8] = Table 48, fipronil/adjuvant in acetone

In the case of `CNC(=O)Oc1cccc2ccccc12` [carbaryl (5%)], the “Average % Mortality after 1 hr” value [1] is reported as 0%, the “Average % Mortality after 3 hr” value [1] is reported as 0% and the “Average % Mortality after 5 hr” value [1] is reported as 0%. For the same molecule, the “Average % Mortality after 24 hr” value [1] was 0%.
With `CNC(=O)Oc1cccc2c1OC(C)(C)O2` [0.1% = 50 mg Bendiocarb/m^2] the “% KD and Mortality 3′” value [1] was 0%, the “% KD and Mortality 9′” value [1] was 0% and the “% KD and Mortality 15′” value [1] was 0%. The “% KD and Mortality 30′” value [1] was 15%, the “% KD and Mortality 1 h” value [1] was 37% and the “% KD and Mortality 24 h” value [1] was 81%.
For `CC(C)=CC1C(C(=O)OCc2coc(Cc3ccccc3)c2)C1(C)C` (stereo not drawn) [Resmethrin (1%)], the “Average % Knockdown & Mortality after 3 min” value ([2]; 3 min, Table 37, resmethrin/adjuvant in acetone) was 66%, the “Average % Knockdown & Mortality after 15 min” value [2, 7] was 100% and the “Average % Knockdown & Mortality after 30 min” value [2, 7] was 100%. The “Average % Knockdown & Mortality after 60 min” value [2, 7] was 100%, the “Average % Knockdown & Mortality after 24 hr” value [2, 7] was 100% and the “Average % Knockdown & Mortality after 3 min” value ([1]; in vivo) was 0%. The “Average % Knockdown & Mortality after 15 min” value ([1]; in vivo) was 2%, the “Average % Knockdown & Mortality after 30 min” value ([1]; in vivo) was 13% and the “Average % Knockdown & Mortality after 60 min” value ([1]; in vivo) was 11%. For the same molecule, the “Average % Knockdown & Mortality after 2 hr” value ([1]; in vivo) was 2% and the “Average % Knockdown & Mortality after 24 hr” value ([1]; in vivo) was 4%.
In the case of `CNC(=O)Oc1cccc2ccccc12` [carbaryl (0.1%)], the “Average % Mortality after 1 hr” value [1] is reported as 0% and the “Average % Mortality after 3 hr” value [1] is reported as 0%.
With `N#Cc1nn(-c2c(Cl)cc(C(F)(F)F)cc2Cl)c(N)c1[S+]([O-])C(F)(F)F` (stereo not drawn) [Fipronil (.0001%)] the “Average % Knockdown & Mortality after 15 min” value [2, 8] was 0%, the “Average % Knockdown & Mortality after 30 min” value [2, 8] was 0% and the “Average % Knockdown & Mortality after 60 min” value [2, 8] was 0%. The “Average % Knockdown & Mortality after 4 hr” value ([2]; 4 hr, Table 48, fipronil/adjuvant in acetone) was 3%, the “Average % Knockdown & Mortality after 6 hr” value ([2]; 6 hr, Table 48, fipronil/adjuvant in acetone) was 3% and the “Average % Knockdown & Mortality after 24 hr” value [2, 8] was 9%. The “Average % Mortality after 30 min” value ([3]; 30 min) was 0%, the “Average % Mortality after 60 min” value ([3]; 60 min) was 3% and the “Average % Mortality after 2 hr” value ([3]; 2 hr) was 3%. The “Average % Mortality after 24 hr” value ([3]; 24 hr) was 54%, the “Average % Mortality after 30 min” value ([4]; 30 min) was 3% and the “Average % Mortality after 60 min” value ([4]; 60 min) was 3%. For the same molecule, the “Average % Mortality after 2 hr” value ([4]; 2 hr) was 3%, the “Average % Mortality after 3 hr” value ([4]; 3 hr) was 6% and the “Average % Mortality after 24 hr” value ([4]; 24 hr) was 47%. The “Average % Knockdown & Mortality after 60 min” value ([5]; 60 min) was 0%, the “Average % Knockdown & Mortality after 3 hr” value ([5]; 3 hr) was 7% and the “Average % Knockdown & Mortality after 5 hr” value ([5]; 5 hr) was 7%. For the same molecule, the “Average % Knockdown & Mortality after 24 hr” value ([5]; 24 hr) was 7%, the “Average % Mortality after 30 min” value ([6]; 30 min) was 0% and the “Average % Mortality after 60 min” value ([6]; 60 min) was 0%. For the same molecule, the “Average % Mortality after 2 hr” value ([6]; 2 hr) was 0%, the “Average % Mortality after 3 hr” value ([6]; 3 hr) was 0% and the “Average % Mortality after 24 hr” value ([6]; 24 hr) was 74%.
For `CNC(=O)Oc1cccc2ccccc12` [carbaryl (2.5%)], the “Average % Mortality after 1 hr” value [1] was 0%, the “Average % Mortality after 3 hr” value [1] was 0% and the “Average % Mortality after 5 hr” value [1] was 2%. For the same molecule, the “Average % Mortality after 24 hr” value [1] was 5%.
With `CNC(=O)Oc1cccc2c1OC(C)(C)O2` [0.01% = 5 mg Bendiocarb/m^2] the “% KD and Mortality 3′” value [1] was 0%, the “% KD and Mortality 9′” value [1] was 0% and the “% KD and Mortality 15′” value [1] was 0%. The “% KD and Mortality 30′” value [1] was 0%, the “% KD and Mortality 1 h” value [1] was 0% and the “% KD and Mortality 24 h” value [1] was 0%.
